Data set [1] deals with Smn protein in SMA patient fibroblast cells (GM03813). Briefly: Smn protein assay in cultured cells (SMN HTRF). The data set is classed as cell-based, human. As to conditions: SMA patient fibroblast cells, 48 hours; for EC1.5x for Smn protein expression: 7-point concentration curve, SMN HTRF, concentration producing 1.5 times Smn protein vs DMSO vehicle control; for maximum fold (Fold) increase of Smn protein: 7-point concentration data, fold relative to vehicle control. Summed up: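 Cells were cultured 72 h, seeded at 5,000/well and dosed with seven concentrations (3.16-fold apart) for 48 h. HTRF on lysates, read at 665 and 620 nm, gave blank-corrected ΔF values relative to DMSO. Potency is reported as EC1.5×, efficacy as maximal fold Smn increase.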

Data set [2] deals with SMN2 minigene mRNA (SMN2-A minigene) in HEK293H cells. Briefly: SMN2 minigene mRNA splicing RT-qPCR assay in cultured cells. The data set is classed as cell-based, human. As to conditions: Homo sapiens, HEK293-H; concentration increasing full length SMN2 mRNA 1.5-fold relative to vehicle-treated cells; HEK293H cells with SMN2-A minigene, 24 hours, 7-point concentration data; read-out: EC1.5x for production of full length SMN2 mRNA. Summed up:
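EC1.5× values derive from a 24 h treatment of SMN2-A minigene HEK293H cells and GAPDH-normalized RT-qPCR of exon 7-included minigene mRNA relative to vehicle-treated cells.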

Some results are limits rather than exact numbers.

These results are taken from patent US11753407B2, “Compounds for treating spinal muscular atrophy” (PTC Therapeutics, Inc., priority 2012, dated 2023).

The molecule `Cn1ncc2cc(-c3cc(=O)n4cc(C5=CCNCC5)ccc4n3)ccc21` [Cpd 443, 2-(1-methyl-1H-indazol-5-yl)-7-(1,2,3,6-tetrahydropyridin-4-yl)-4H-pyrido[1,2-a]pyrimidin-4-one] came in with a melting point of 200 to 203 °C. Moreover, in data set [1], the “EC1.5x for Smn protein expression” value is “**** (an EC1.5x≤0.3 μM is indicated by four stars (****))” and the “maximum fold (Fold) increase of Smn protein” value (“maximum fold (Fold) increase” below) is recorded as “***** (a fold increase >1.65 is indicated by five stars (*****))”. Further, the EC (1.5-fold increase) in data set [2] is under 0.1 µM.
Molecule `Cc1cc2cc(-c3cc(=O)n4cc(N5CCNCC5)ccc4n3)oc2c(C)n1` [Cpd 486, 2-(5,7-dimethylfuro[2,3-c]pyridin-2-yl)-7-(piperazin-1-yl)-4H-pyrido[1,2-a]pyrimidin-4-one] showed a melting point of 198 to 200 °C. In data set [1], the “EC1.5x for Smn protein expression” value was “**** (an EC1.5x≤0.3 μM is indicated by four stars (****))”; the “maximum fold (Fold) increase” value is “**** (a fold increase between >1.5 and ≤1.65 is indicated by four stars (****))”. For the same molecule, the EC (1.5-fold increase) in data set [2] is under 0.1 µM.
Consider `Cn1ncc2cc(-c3cc(=O)n4cc(C5CCNCC5)ccc4n3)ccc21` [Cpd 603, 2-(1-methyl-1H-indazol-5-yl)-7-(piperidin-4-yl)-4H-pyrido[1,2-a]pyrimidin-4-one], for which the melting point lay within 268 to 270 °C. Also, in data set [1], the “EC1.5x for Smn protein expression” value was “*** (an EC1.5× between >0.3 μM and ≤1 μM is indicated by three stars (***))”; the “maximum fold (Fold) increase” value is “***** (a fold increase >1.65 is indicated by five stars (*****))”. Besides, the EC (1.5-fold increase) in data set [2] was 0.1 to 0.3 µM.
In the case of `COc1nc(C)cn2nc(-c3cc(=O)n4cc(N5CCN(C)CC5)ccc4n3)cc12` [Cpd 625, 2-(4-methoxy-6-methylpyrazolo[1,5-a]pyrazin-2-yl)-7-(4-methylpiperazin-1-yl)-4H-pyrido[1,2-a]pyrimidin-4-one], the melting point is 242 to 244 °C. Moreover, in data set [1], the “maximum fold (Fold) increase” value is “** (a fold increase between >1.2 and ≤1.35 is indicated by two stars (**))”. Further, the EC (1.5-fold increase) in data set [2] lay in the range of 1 to 3 µM.
On to `Cc1cn2nc(-c3cc(=O)n4cc(N5CCN(C)CC5)ccc4n3)cc2c(O)n1` [Cpd 626, 2-(4-hydroxy-6-methylpyrazolo[1,5-a]pyrazin-2-yl)-7-(4-methylpiperazin-1-yl)-4H-pyrido[1,2-a]pyrimidin-4-one], for which the melting point is 280 to 283 °C. In addition, in data set [1], the “EC1.5x for Smn protein expression” value was “** (an EC1.5× between >1 μM and ≤3 μM is indicated by two stars (**))”; the “maximum fold (Fold) increase” value is on record as “***** (a fold increase >1.65 is indicated by five stars (*****))”. Besides, the EC (1.5-fold increase) in data set [2] lay within 0.3 to 1 µM.
`CCc1nc(C)cn2nc(-c3cc(=O)n4cc(N5CCN(C)[C@H](C)C5)ccc4n3)cc12` [Cpd 629, 7-[(3R)-3,4-dimethylpiperazin-1-yl]-2-(4-ethyl-6-methylpyrazolo[1,5-a]pyrazin-2-yl)-4H-pyrido[1,2-a]pyrimidin-4-one] returned a melting point of 257 to 259 °C. Besides, in data set [1], the “EC1.5x for Smn protein expression” value was “**** (an EC1.5x≤0.3 μM is indicated by four stars (****))” and the “maximum fold (Fold) increase” value is listed as “***** (a fold increase >1.65 is indicated by five stars (*****))”. Also, the EC (1.5-fold increase) in data set [2] was under 0.1 µM.
In the same order, the values of `Cc1cn2nc(-c3cc(=O)n4cc(C5CCN(CCF)CC5)ccc4n3)cc2c(C)n1` [Cpd 662, 2-(4,6-dimethylpyrazolo[1,5-a]pyrazin-2-yl)-7-[1-(2-fluoroethyl)piperidin-4-yl]-4H-pyrido[1,2-a]pyrimidin-4-one] are 197 to 199 °C, “**** (an EC1.5x≤0.3 μM is indicated by four stars (****))”, “***** (a fold increase >1.65 is indicated by five stars (*****))” and under 0.1 µM.

What is called melting point is the temperature, or range, at which the solid turns liquid.
